The source of these data is article PMC11664502, “Parahydrogen Polarization in Reverse Micelles and Application to Sensing of Protein–Ligand Binding” (Journal of the American Chemical Society, 2024).

Structures are written as SMILES.

The assay concerns the target T1, thiaminase II (TenA) (Bacillus subtilis, UniProt P25052).
T1 sequence (P25052 1-236): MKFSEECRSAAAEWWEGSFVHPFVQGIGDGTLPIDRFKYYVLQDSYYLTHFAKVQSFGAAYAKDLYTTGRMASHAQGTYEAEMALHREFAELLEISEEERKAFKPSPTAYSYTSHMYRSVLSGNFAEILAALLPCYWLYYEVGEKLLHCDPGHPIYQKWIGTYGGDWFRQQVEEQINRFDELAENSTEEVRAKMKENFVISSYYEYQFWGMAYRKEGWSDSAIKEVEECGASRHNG
Description: nhPHIP hyperpolarized NMR of iridium hydride signals in reverse micelles; agrees with a titration of TenA with ABAP (KD […]). In kind it is binding.

Usually Kd stands for the equilibrium constant for the complex coming apart. Low values mean tighter binding, high ones weaker binding. Turning to `Nc1ccnc(NCc2ccccc2)n1` [L, 4-amino-2-benzylaminopyrimidine], binding was characterised by a dissociation constant (Kd) of 39.7 ± 8.9 µM.
